According to patent US20230399296A1, “RNA VIRUS INHIBITOR COMPOUNDS WITH IMPROVED METABOLIC STABILITY AND USES THEREOF” (priority 2022, published 2023):

Experiments:
[1] = Microsomal stability, mouse liver microsomes; assay type: in vitro ADME
Method: (§1) Experiments were performed to assess the stability of the compounds in the presence of mouse and human liver microsomes. The experimental procedures there were used are described below. Examples of the percent remaining of the compound curves in the presence of human microsomes are shown in FIGS. 2A to 2F, and examples of the determined half-life are provided in TABLE 3.
(§2) Intermediate solution: 5 μL of compound and control stock solution (10 mM in dimethyl sulfoxide (DMSO)) were diluted with 495 μL of acetonitrile (ACN) (intermediate solution concentration: 100 μM, 99% ACN).
(§3) Working solution: 50 μL of compound and control intermediate solution (100 μM) were diluted with 450 μL of 100 mM potassium phosphate buffer (working solution concentration: 10 μM, 9.9% ACN).
(§4) The appropriate amount of NADPH powder was weighed and diluted into a 10 mM MgCl2 solution (working solution concentration: 10 unit/mL; final concentration in reaction system: 1 unit/mL).
(§5) The appropriate concentrations of microsome working solutions were prepared in 100 mM potassium phosphate buffer.
(§6) Cold (4° C.) acetonitrile (ACN) containing 200 ng/mL tolbutamide and 200 ng/mL labetalol as internal standards (IS) was used as the stop solution.
(§7) Using an Apricot automation workstation, 10 μL/well of compound working solution were added to all 96-well reaction plates except the blank (T0, T5, T10, T20, T30, T60, and NCF60). An Apricot automation workstation was used to add 80 μL/well of microsome solution to all reaction plates (Blank, T0, T5, T10, T20, T30, T60, and NCF60). All reaction plates containing mixtures of compound and microsomes were pre-incubated at 37° C. for 10 minutes. An Apricot automation workstation was used to add 10 μL/well of 100 mM potassium phosphate buffer to reaction plate NCF60. Reaction plate NCF60 was incubated at 37° C., and timer 1 was started. After pre-incubation, an Apricot automation workstation was used to add 10 μL/well of NADPH regenerating system to every reaction plate except NCF60 (Blank, T0, T5, T10, T20, T30, and T60) to start the reaction. The reaction plates were incubated at 37° C., and timer 2 was started. An Apricot automation workstation was used to add 300 μL/well of stop solution to each reaction plate at its appropriate end time point to terminate the reaction. Each plate was sealed and shaken for 10 minutes. After shaking, each plate was centrifuged at 4000 rpm and 4° C. for 20 minutes. During centrifugation, an Apricot automation workstation was used to add 300 μL/well of HPLC grade water to eight new 96-well plates. After centrifugation, an Apricot automation workstation was used to transfer 100 μL of supernatant from each reaction plate to its corresponding bioanaylsis plate. Each bioanalysis plate was sealed and shaken for 10 minutes prior to LC-MS/MS analysis.
(§8) The equation of first order kinetics was used to calculate T½: […]

[2] = Microsomal stability, human liver microsomes; assay type: in vitro ADME
Method: as §1, §2, §3, §4, §5, §6, §7, §8

SARS-CoV-2 3CLP = SARS-CoV-2 3CLP (Severe acute respiratory syndrome coronavirus 2 (2019-nCoV) (SARS-CoV-2), UniProt P0DTD1); assay: SARS-CoV-2 3CLP FRET inhibition assay; assay type: biochemical; conditions: 80 nM SARS-CoV-2 3CLP, 100 μM FRET substrate, pH 7.8, 37° C.; read-out: 3CL Protease IC50
From the text: Compounds described herein were screened for SARS-CoV-2 3CLP inhibition using a Fluorescence resonance energy transfer (FRET) assay at different compound concentrations. Examples of the resulting concentration response curves are shown in FIGS. 1A and 1B, and examples of the determined 50 percent inhibition concentration (IC50) are provided in TABLE 1.
A synthesized fluorescent substrate containing the cleavage site (indicated by the arrow, ↓) of SARS-CoV-2 3CLP (2-Abz-SVTLQ↓SG-Tyr(NO2)—R—NH2) was used for the fluorescence resonance energy transfer (FRET)-based cleavage assay. The protease reaction of SARS-CoV-2 3CLP towards fluorescent substrate was performed in activity buffer (20 mM Bis Tris, pH 7.8, 1 mM DTT) at 37° C. for 10 min. The final concentration of protease used in the assay was fixed at 80 nM and the concentrations of the substrate were varied from 0.1 to 500 μM. Reaction was started with the enzyme and the fluorescence signal of the Abz-SVTLQ peptide cleavage product was monitored at an emission wavelength of 420 nm with excitation at 320 nm, using an Flx800 fluorescence spectrophotometer (BioTek). Before kinetic calculations, it was verified that the proportionality between the fluorescence emitted and the amount of the substrate used in the assay was linear. The minimal concentration of the enzyme and time of reaction that gave a linear dependence of amount of generated product with time was chosen. Initial velocities in corresponding relative fluorescence units per unit of time (ARFU/s) were converted to the amount of the cleaved substrate per unit of time (M/s) by fitting to the calibration curve of free Aminobenzoyl-SVTLQ. All data are corrected for inner filter effects by an adopted literature protocol. In short, the fluorescence signal (RFU) at each substrate concentration was determined and defined as f(FRET). Then, 5 μL free Aminobenzoyl-SVTLQ at final 5 μM was added to each concentration and fluorescence was taken f(FRET+Aminobenzoyl-SVTLQ). Simultaneously, a reference reading was taken with the same free Aminobenzoyl-SVTLQ concentration and defined as f(ref). The inner-filter correction was obtained as:
Stock solutions of the compounds were prepared with DMSO. For the determination of the IC50, 80 nM of SARS-CoV-2 3CLP was incubated with the compounds at various concentrations from 0 to 100 μM in 20 mM Bis-Tris, pH 7.8, 1 mM DTT at 37° C. for 10 min. The protease reaction was started by addition of 100 μM of the substrate. The GraphPad Prism 6.0 software (GraphPad) was used for the calculation of the IC50 values.

SARS-CoV-2 = SARS-CoV-2 plaque reduction assay in Vero E6 cells; assay type: cell-based; conditions: Severe acute respiratory syndrome coronavirus 2, Vero C1008, 48 h, read-out: SARS-CoV-2 Antiviral EC50
in vitro = assay type: cell-based; conditions: male, human (A549); green monkey (Vero E6)
Method: Cell viability was measured using the CellTiter-Glo luminescent cell viability assay (Promega). Separately A549 (human lung epithelial) cells and VeroE6 cells were seeded at 5×10^3 cells/well in 96-well plates and incubated overnight before treatment. Compounds were solubilized in DMSO and added to cells in an eight-point four-fold serial dilution (200 μM to 0.0122 μM). Cells were incubated in the presence of compounds for 24 hours before addition of the luminescence substrate and measurement of ATP activity according to manufacturer's instructions. The percentage of viable cells was calculated relative to cells treated with solvent alone (0.5% DMSO).

[3] = mouse liver microsomes, NADPH, 37° C., read-out: Mouse Microsomes Half-life
[4] = human liver microsomes, NADPH, 37° C., read-out: Human Microsomes Half-life

Row | SMILES | half-life at 1 μM ([1]; mouse, microsomes) [min] | half-life at 1 μM ([2]; human, microsomes) [min] | IC50 (SARS-CoV-2 3CLP) [µM] | EC50 (SARS-CoV-2) [µM] | CC50 at 24 h (in vitro) [µM] | half-life at 1 μM [1, 3] [min] | half-life at 1 μM [2, 4] [min]
1 | COc1cccc2[nH]c(C(=O)N[C@@H](CC(C)C)C(=O)N[C@@H](C[C@@H]3CCCNC3=O)C(=O)CO)cc12 [AVI-8004, reference compound] | 12 | 34 | – | – | – | – | –
2 | COc1cccc2[nH]c(C(=O)N[C@@H](CC(C)C)C(=O)N[C@H](C#N)C[C@@H]3CCCNC3=O)cc12 [AVI-8059, reference compound] | 10 | 16 | – | – | – | – | –
3 | O=C(N[C@@H](CC1CC1)C(=O)N[C@@H](C[C@@H]1CCCNC1=O)C(=O)CO)c1cc2cc(F)cc(F)c2[nH]1 [Compound 1, N-[(2S)-3-cyclopropyl-1-({(2S)-4-hydroxy-3-oxo-1-[(3S)-2-oxopiperidin-3-yl]butan-2-yl}amino)-1-oxopropan-2-yl]-5,7-difluoro-1H-indole-2-carboxamide] | – | – | < 0.05 | < 10 | > 200 | 57 | 46
4 | O=C(N[C@@H](CC1CC1)C(=O)N[C@@H](C[C@@H]1CCCNC1=O)C(=O)CO)c1cc2cccc(Cl)c2[nH]1 [Compound 2, 7-chloro-N-[(2S)-3-cyclopropyl-1-({(2S)-4-hydroxy-3-oxo-1-[(3S)-2-oxopiperidin-3-yl]butan-2-yl}amino)-1-oxopropan-2-yl]-1H-indole-2-carboxamide] | – | – | < 0.05 | < 5 | > 200 | 15 | 26
5 | O=C(N[C@@H](CC1CC1)C(=O)N[C@@H](C[C@@H]1CCNC1=O)C(=O)CO)c1cc2cc(F)cc(F)c2[nH]1 [Compound 3, N-[(2S)-3-cyclopropyl-1-({(2S)-4-hydroxy-3-oxo-1-[(3S)-2-oxopyrrolidin-3-yl]butan-2-yl}amino)-1-oxopropan-2-yl]-5,7-difluoro-1H-indole-2-carboxamide] | – | – | < 0.01 | < 5 | > 200 | 124 | > 145
6 | O=C(N[C@@H](CC1CC1)C(=O)N[C@@H](C[C@@H]1CCNC1=O)C(=O)CO)c1cc2cccc(Cl)c2[nH]1 [Compound 4, 7-chloro-N-[(2S)-3-cyclopropyl-1-({(2S)-4-hydroxy-3-oxo-1-[(3S)-2-oxopyrrolidin-3-yl]butan-2-yl}amino)-1-oxopropan-2-yl]-1H-indole-2-carboxamide] | – | – | < 0.01 | < 5 | > 200 | 38 | 76
7 | O=C(N[C@@H](CC1CC1)C(=O)N[C@@H](C[C@@H]1CCNC1=O)C(=O)CO)c1cc2cccc(F)c2[nH]1 [Compound 5, N-[(2S)-3-cyclopropyl-1-({(2S)-4-hydroxy-3-oxo-1-[(3S)-2-oxopyrrolidin-3-yl]butan-2-yl}amino)-1-oxopropan-2-yl]-7-fluoro-1H-indole-2-carboxamide] | – | – | < 0.05 | 5 to 10 | > 200 | 124 | > 145
8 | O=C(N[C@@H](CC1CC1)C(=O)N[C@@H](C[C@@H]1CCCNC1=O)C(=O)CO)c1cc2cccc(F)c2[nH]1 [Compound 9, N-[(2S)-3-cyclopropyl-1-({(2S)-4-hydroxy-3-oxo-1-[(3S)-2-oxopiperidin-3-yl]butan-2-yl}amino)-1-oxopropan-2-yl]-7-fluoro-1H-indole-2-carboxamide] | – | – | < 0.01 | < 5 | > 200 | 91 | 74
9 | CC(C)[C@H](N)C(=O)OCC(=O)[C@H](C[C@@H]1CCCNC1=O)NC(=O)[C@H](CC1CC1)NC(=O)c1cc2cc(F)cc(F)c2[nH]1.Cl [Compound 17, (3S)-3-{[3-cyclopropyl-N-(5,7-difluoro-1H-indole-2-carbonyl)-L-alanyl]amino}-2-oxo-4-[(3S)-2-oxopiperidin-3-yl]butyl L-valinate hydrochloride Salt] | – | – | < 0.05 | < 5 | > 200 | 6 | 6
10 | N#C[C@H](C[C@@H]1CCCNC1=O)NC(=O)[C@H](CC1CC1)NC(=O)c1cc2cccc(Cl)c2[nH]1 [PBI-0451, reference compound] | 12 | 11 | – | – | – | – | –
11 | CC(C)(C)[C@H](NC(=O)C(F)(F)F)C(=O)N1C[C@H]2[C@@H]([C@H]1C(=O)N[C@H](C#N)C[C@@H]1CCNC1=O)C2(C)C [nirmatrelvir, reference compound] | 15 | 40 | – | – | – | – | –
